We go through 3 molecules from patent publication US7018990B2, “Combination of a factor Xa inhibitor and clopidogrel” (Bristol-Myers Squibb Company, priority 2002, dated 2006).

The subject of data set [1] is rabbits. The data set can be described thus: Cuticle bleeding time in anesthetized rabbits. The note with it: clopidogrel 1 mg/kg/hr infused into the portal vein, compared to the vehicle-group. As for the experimental part: The bleeding time effects of Compound A, clopidogrel, and their combination were examined in anesthetized rabbits. Rabbits were anesthetized as described above and their hind paws were shaved. A standard cut was made at the apex of the cuticle with a razor blade. Blood was allowed to flow freely by keeping the bleeding site in contact with 37° C. warm lactated Ringer's solution. Bleeding time was defined as the time after transection when bleeding was ceased. It was measured by averaging the bleeding time of three nail cuticles in the control and treatment period. Percentage change in cuticle bleeding time is calculated by comparing the bleeding time taken in the treatment period to the control bleeding time. Compounds were infused as described above.
(§1) The same experimental protocol as described in Example 1 was used in this study. Aspirin was infused intravenously whereas clopidogrel was infused into the portal vein. Both agents were infused 1 hour prior to the electrical stimulation of the carotid artery and the cuticle transection, and continuously to the end of the experiment.

Data set [2] relates to rabbits. In words: Electrically induced carotid artery thrombosis in anesthetized rabbits (clot inhibition, carotid blood flow). The class given is in vivo. On the procedure: Rabbits were anesthetized with ketamine (50 mg/kg i.m.) and xylazine (10 mg/kg i.m.) and then surgically prepared with arterial and venous catheters. An electromagnetic flow probe was placed on a segment of an isolated carotid artery to monitor blood flow. Thrombus formation was induced by electrical stimulation of the carotid artery for 3 min at 4 mA using an external stainless-steel bipolar electrode. Carotid blood flow was measured continuously over a 45-min period to monitor thrombus occlusion. Compound A was infused intravenously whereas clopidogrel was infused into the portal vein. Both agents were infused 1 hour prior to the electrical stimulation of the carotid artery and continuously during the 45-min period.
as §1
The same experimental protocol as described in Example 1 was used in this study. Aspirin and Compound A were infused intravenously.

Where [3] appears, read: clopidogrel 1 mg/kg/hr infused into the portal vein.
[4] abbreviates: aspirin 0.3 mg/kg/hr infused intravenously.
The mark [5] stands for this setting: Compound A 0.1 mg/kg/hr infused intravenously.

For the molecule `COC(=O)[C@H](c1ccccc1Cl)N1CCc2sccc2C1` [clopidogrel, Clopidogrel], the bleeding time result in data set [1] is reported as “increased the bleeding time significantly”. Besides, in data set [2] (setting [3]), the carotid blood flow entry is on record as “increase in carotid blood flow” and the “inhibition of clot formation” value was “moderate inhibition of clot formation”.

As to `CC(=O)Oc1ccccc1C(=O)O` [aspirin, acetylsalicyclic acid], in data set [2] (setting [4]), the carotid blood flow entry is reported as “not effective” and the “inhibition of clot formation” value is “not effective in inhibiting the formation of clot”.

Consider `CN(C)Cc1nccn1-c1ccc(NC(=O)c2cc(C(F)(F)F)nn2-c2ccc3onc(N)c3c2)c(F)c1.Cl` [Compound A, 1-(3′-aminobenzisoxazol-5′-yl)-3-trifluoromethyl-5-[[4-[(2′-dimethylaminomethyl)imidazol-1′-yl]-2fluorophenyl]aminocarbonyl]pyrazole-hydrochloric acid salt], for which, in data set [2] (setting [5]), the carotid blood flow result is reported as “increase in carotid blood flow” and the “inhibition of clot formation” value is “moderate inhibition of clot formation”.
